Patent US7745465B2, “Method of enhancing cellular production of molecular chaperone, hydroxylamine derivatives useful for enhancing the chaperone production and the preparation thereof” (CytRx Corporation, priority 1995, dated 2010)

Tests used:
[1] = system: hsp26 mRNA; test: Northern blot of hsp26 mRNA in S. cerevisiae; assay type: cell-based, Saccharomyces cerevisiae; settings: 10-100 μM for 5 min. to 1 hour at 25° C.
Protocol: To S. cerevisiae cells that were maintained at 25° C., varying concentration of N-[2-hydroxy-3-(1-piperidinyl)propoxy]-3-piridinecarboximidoyl chloride maleate was introduced (concentrations between 10 to 100 μM), cells were then incubated for one hour at 25° C. in the presence of N-[2-hydroxy-3-(1-piperidinyl)propoxy]-3-piridinecarboximidoyl chloride maleate. The temperature was then increased to 42° C., and the oxygraph measurements were taken as described in the Patriarca reference.
The cells treated with N-[2-hydroxy-3-(1-piperidinyl)propoxy]-3-pyridine carboximidoyl chloride maleate were tested for concomitant induction of hsp genes, using Northern Blotting procedure. The method of extracting, purifying mRNAs from eukaryotic cells, and analyzing the RNA thus obtained using Northern blotting procedure is well known in the art and described in Maniatis, and Maresca, et al. Archives Medial Research 24: 247-249 (1993), both of the references being fully incorporated herein. The Northern blotting protocol is also described in Example 7 set forth above. Hsp 26 and hsp70 DNA sequences were used as probes.

[2] = system: hsp72 gene; test: Northern blot of hsp72 mRNA in rat heart ventricles; assay type: in vivo
Protocol: Experiments were carried out in SPRD male rats. Animals were anaesthetized with Nembutal in a dose of 60 mg/kg/i.p. Body temperature of the rats were maintained with an infra lamp placed over the abdomen and the rectal temperature was measured. After a 25-40 minute period the temperature of the rats increased to 42.0-42.2° C. and this temperature was maintained for 15 minutes. After a recovery period (2 hrs), tissue samples were collected from the left and right ventricles.
Experiments were carried out in SPRD male rats. The animals were anaesthetized with Nembutal in a dose of 60 mg/kg/i.p. After opening the chest and pericardium, the LAD coronary artery was occluded for 5 minutes and then the incidence and duration of ventricular tachycardia and fibrillation in the reperfusion period (10 minutes) were investigated. Tissue samples were collected from the left and right ventricles.
Total RNA was extracted using RN Agents kit (Promega) according to the manufacturer's instructions (Protocols and Applications Guide, 2nd edition, 1991, Promega Corporation). […]
Prehybridizations were carried out at 65° C. in H-buffer (0.25M Na2HPO4, pH 7.2, 7% SDS) for 15 minutes. […] The membrane was washed with 20 mM Na2HPO4, pH 7.2, 5% SDS (65 C; 2×15 min.) and evaluated by autoradiography. […]

[3] = system: P 1; test: P1 transcription factor activity in yeast cells; assay type: cell-based; settings: minimal medium
Description: It was also investigated if the activity of AP-1 and P 1 transcription factors can be modulated by N-[2-hydroxy-3-(1-piperidinyl)propoxy]-3-piridinecarboximidoyl chloride maleate in yeast cells exposed to various stress conditions.

[4] = system: hsp72; test: hsp72 content of K562 tumor cells by flow-cytometry; assay type: cell-based, human; settings: for hsp72 expression compared to heat shock alone: 5×10^−5 M during 42° C. for 2 hours, 16 hrs recovery, maleate
Description: Human K562 cells, a myeloid tumor cell line derived from a patient with chronic myelogenous leukemia in blast phase (ATCC, CCL243) was used (Lozzio, B C and Lozzio, B B Blood 45:321, 1975).

With `O=C(O)/C=C\C(=O)O.OC(CON=C(Cl)c1cccnc1)CN1CCCCC1` (stereo not shown) [N-[2-hydroxy-3-(1-piperidinyl)-propoxy]3-pyridinecarboximidoyl chloride maleate] the “induction of hsp 26” value [1] was “induction of hsp 26 was observed”, the “expression of hsp72 gene in heart muscle preparations” value ([2]; 100 mg/kg p.o., ischemia) was “highly increased expression of hsp72 gene” and the “activation of the hsp72 gene” value ([2]; in the absence of stress, compound alone) was “unable to activate the hsp72 gene”. The “activity of P 1” value [3] was “activity decreased”, the “hsp72 expression compared to heat shock alone” value ([4]; listed as N-[2-hydroxy-3-(1-piperidinyl)propoxy]-3-piridinecarboximidoyl chloride maleate) was “enhanced level of hsp72” and the “hsp72 expression compared to heat shock alone” value ([4]; listed as N-[2-hydroxy-3-(1-piperidinyl)propoxy]-3-piridinecarboxymidoyl chloride maleate) was “significant increase of hsp72 expression”. The hsp72 levels ([4]; compound alone, no heat shock) was “did not increase hsp72 levels”.
